Results published in patent US10597388B2, “Pyridazinone herbicides” (FMC CORPORATION, priority 2014, dated 2020).

Key:
Assay in all cases: Test C greenhouse herbicide test, pre- and postemergence
Type in all cases: in vivo
[1] = test system: blackgrass (Alopecurus myosuroides)
Source text: (§1) Seeds of plant species selected from blackgrass (Alopecurus myosuroides), ryegrass, Italian (Italian ryegrass, Lolium multiflorum), wheat (winter wheat, Triticum aestivum), galium (catchweed bedstraw, Galium aparine), corn (Zea mays), large crabgrass, large (large crabgrass, Digitaria sanguinalis), foxtail, giant (giant foxtail, Setaria faberii), johnsongrass (Sorghum halepense), lambsquarters (Chenopodium album), morningglory (Ipomoea coccinea), nutsedge, yellow (yellow nutsedge, Cyperus esculentus), pigweed (Amaranthus retroflexus), ragweed (common ragweed, Ambrosia elatior), soybean (Glycine max), barnyardgrass (Echinochloa crus-galli), oilseed rape (Brassica napus), waterhemp (common waterhemp, Amaranthus rudis), and velvetleaf (Abutilon theophrasti) were planted into a blend of loam soil and sand and treated preemergence with test chemicals formulated in a non-phytotoxic solvent mixture which included a surfactant.
(§2) At the same time, plants selected from these crop and weed species and also chickweed (common chickweed, Stellaria media), kochia (Kochia scoparia), and oat, wild (wild oat, Avena fatua), were planted in pots containing Redi-Earth® planting medium (Scotts Company, 14111 Scottslawn Road, Marysville, Ohio 43041) comprising spaghnum peat moss, vermiculite, wetting agent and starter nutrients and treated with postemergence applications of test chemicals formulated in the same manner. Plants ranged in height from 2 to 18 cm (1- to 4-leaf stage) for postemergence treatments. Treated plants and controls were maintained in a greenhouse for 13 to 15 d, after which time all species were compared to controls and visually evaluated. Plant response ratings, summarized in Table C, are based on a scale of 0 to 100 where 0 is no effect and 100 is complete control. A dash (-) response means no test result.

[2] = test system: waterhemp (common waterhemp, Amaranthus rudis)
Source text: as §1, §2

[3] = test system: wheat (winter wheat, Triticum aestivum)
Source text: as §1, §2

[4] = test system: barnyardgrass (Echinochloa crus-galli)
Source text: as §1, §2

[5] = test system: johnsongrass (Sorghum halepense)
Source text: as §1, §2

soybean (Glycine max) = test system: soybean (Glycine max)
Source text: as §1, §2

[6] = test system: galium (catchweed bedstraw, Galium aparine)
Source text: as §1, §2

[7] = test system: foxtail, giant (giant foxtail, Setaria faberii)
Source text: as §1, §2

[8] = test system: morningglory (Ipomoea coccinea)
Source text: as §1, §2

[9] = test system: pigweed (Amaranthus retroflexus)
Source text: as §1, §2

[10] = test system: lambsquarters (Chenopodium album)
Source text: as §1, §2

[11] = test system: nutsedge, yellow (yellow nutsedge, Cyperus esculentus)
Source text: as §1, §2

[12] = test system: ryegrass, Italian (Italian ryegrass, Lolium multiflorum)
Source text: as §1, §2

[13] = test system: velvetleaf (Abutilon theophrasti)
Source text: as §1, §2

corn (Zea mays) = test system: corn (Zea mays)
Source text: as §1, §2

[14] = test system: ragweed (common ragweed, Ambrosia elatior)
Source text: as §1, §2

[15] = Postemergence, 31 g ai/ha, 0 to 100 scale (0 no effect, 100 complete control)
[16] = Postemergence, 125 g ai/ha, scale 0 to 100, 0 is no effect, 100 is complete control
[17] = Postemergence, 250 g ai/ha, scale 0 to 100, 0 no effect, 100 complete control, 13 to 15 d
[18] = Preemergence, 31 g ai/ha, scale 0 to 100, 0 is no effect, 100 is complete control
[19] = Preemergence, 62 g ai/ha, scale 0 to 100, 0 is no effect, 100 is complete control
[20] = Preemergence, 125 g ai/ha, scale 0 to 100, 0 is no effect, 100 is complete control
[21] = Preemergence, 250 g ai/ha, scale 0 to 100 (0 no effect, 100 complete control)
[22] = postemergence, 62 g ai/ha, scale 0 to 100, 0 no effect, 100 complete control

CC(=O)Oc1c(C)nn(C)c(=O)c1-c1c(C)sc2ccc(C)cc12 [Compound 25]
95: Plant response rating, Waterhemp [2, 16] | Waterhemp plant response rating [2, 22] | Plant response rating, Galium [6, 17] | Plant response rating, Galium [6, 19] | Plant response rating, Galium [6, 20] | Galium plant response rating [6, 22] | Plant response rating, Morningglory [8, 19] | Plant response rating, Morningglory [8, 20] | Plant response rating, Pigweed [9, 16] | Lambsquarters plant response rating [10, 21] | Lambsquarters plant response rating [10, 22] | Plant response rating, Ryegrass, Italian [12, 17] | Plant response rating, Ryegrass, Italian [12, 19] | Plant response rating, Ryegrass, Italian [12, 20] | Ryegrass, Italian plant response rating [12, 21] | Plant response rating, Ragweed [14, 16] | Plant response rating, Ragweed [14, 17] | Plant response rating, Ragweed [14, 19] | Ragweed plant response rating [14, 21]
15: Barnyardgrass plant response rating [4, 15]
30: Blackgrass plant response rating [1, 15] | Plant response rating, Barnyardgrass [4, 19] | Plant response rating, Nutsedge, Yellow [11, 19]
90: Plant response rating, Blackgrass [1, 20] | Blackgrass plant response rating [1, 21] | Galium plant response rating [6, 15] | Plant response rating, Galium [6, 18] | Plant response rating, Foxtail, Giant [7, 20] | Pigweed plant response rating [9, 15] | Pigweed plant response rating [9, 22] | Lambsquarters plant response rating [10, 15] | Plant response rating, Nutsedge, Yellow [11, 16] | Plant response rating, Nutsedge, Yellow [11, 17] | Plant response rating, Ryegrass, Italian [12, 16] | Plant response rating, Ryegrass, Italian [12, 18] | Plant response rating, Velvetleaf [13, 20] | Ragweed plant response rating [14, 15]
5: Plant response rating, Wheat [3, 17] | Wheat plant response rating [3, 21] | Plant response rating, Johnsongrass [5, 16] | Plant response rating, Johnsongrass [5, 20] | Johnsongrass plant response rating [5, 22] | Soybean plant response rating (soybean (Glycine max); [21]) | Corn plant response rating (corn (Zea mays); [15]) | Plant response rating, Corn (corn (Zea mays); [16]) | Corn plant response rating (corn (Zea mays); [22])
55: Blackgrass plant response rating [1, 22]
70: Plant response rating, Barnyardgrass [4, 20] | Plant response rating, Foxtail, Giant [7, 16] | Plant response rating, Nutsedge, Yellow [11, 20] | Ryegrass, Italian plant response rating [12, 15] | Velvetleaf plant response rating [13, 15]
85: Plant response rating, Blackgrass [1, 18] | Plant response rating, Blackgrass [1, 19] | Barnyardgrass plant response rating [4, 21] | Plant response rating, Foxtail, Giant [7, 17] | Plant response rating, Foxtail, Giant [7, 19] | Plant response rating, Morningglory [8, 18] | Plant response rating, Lambsquarters [10, 19] | Plant response rating, Lambsquarters [10, 20] | Ryegrass, Italian plant response rating [12, 22] | Plant response rating, Velvetleaf [13, 16] | Plant response rating, Velvetleaf [13, 19] | Ragweed plant response rating [14, 22]
0: Wheat plant response rating [3, 15] | Plant response rating, Wheat [3, 16] | Plant response rating, Wheat [3, 19] | Plant response rating, Wheat [3, 20] | Wheat plant response rating [3, 22] | Plant response rating, Barnyardgrass [4, 18] | Johnsongrass plant response rating [5, 15] | Plant response rating, Johnsongrass [5, 18] | Plant response rating, Johnsongrass [5, 19] | Soybean plant response rating (soybean (Glycine max); [15]) | Plant response rating, Soybean (soybean (Glycine max); [19]) | Plant response rating, Soybean (soybean (Glycine max); [20]) | Soybean plant response rating (soybean (Glycine max); [22]) | Plant response rating, Corn (corn (Zea mays); [18]) | Plant response rating, Corn (corn (Zea mays); [19]) | Plant response rating, Corn (corn (Zea mays); [20])
98: Plant response rating, Waterhemp [2, 17] | Galium plant response rating [6, 21] | Plant response rating, Pigweed [9, 17] | Plant response rating, Lambsquarters [10, 16] | Plant response rating, Lambsquarters [10, 17] | Plant response rating, Velvetleaf [13, 17] | Velvetleaf plant response rating [13, 21] | Plant response rating, Ragweed [14, 20]
40: Plant response rating, Nutsedge, Yellow [11, 18]
60: Plant response rating, Blackgrass [1, 16]
75: Waterhemp plant response rating [2, 15] | Plant response rating, Foxtail, Giant [7, 18] | Nutsedge, Yellow plant response rating [11, 22]
10: Plant response rating, Johnsongrass [5, 17] | Plant response rating, Soybean (soybean (Glycine max); [16]) | Plant response rating, Soybean (soybean (Glycine max); [17]) | Plant response rating, Corn (corn (Zea mays); [17]) | Corn plant response rating (corn (Zea mays); [21])
65: Nutsedge, Yellow plant response rating [11, 15]
35: Foxtail, Giant plant response rating [7, 15] | Foxtail, Giant plant response rating [7, 22]
20: Plant response rating, Barnyardgrass [4, 16] | Barnyardgrass plant response rating [4, 22] | Johnsongrass plant response rating [5, 21]
100: Plant response rating, Waterhemp [2, 19] | Plant response rating, Waterhemp [2, 20] | Waterhemp plant response rating [2, 21] | Plant response rating, Galium [6, 16] | Foxtail, Giant plant response rating [7, 21] | Morningglory plant response rating [8, 15] | Plant response rating, Morningglory [8, 16] | Plant response rating, Morningglory [8, 17] | Morningglory plant response rating [8, 21] | Morningglory plant response rating [8, 22] | Plant response rating, Pigweed [9, 18] | Plant response rating, Pigweed [9, 19] | Plant response rating, Pigweed [9, 20] | Pigweed plant response rating [9, 21]
80: Plant response rating, Blackgrass [1, 17] | Plant response rating, Lambsquarters [10, 18] | Nutsedge, Yellow plant response rating [11, 21] | Velvetleaf plant response rating [13, 22] | Plant response rating, Ragweed [14, 18]
25: Plant response rating, Barnyardgrass [4, 17]
